Active and inactive are the calls of the source. The rule behind the calls is not given here.
Assays:
[1] = target: T1, Coagulation factor VII (Homo sapiens) (UniProt P08709); assay: Inhibition of human factor 7a
T1 sequence (whole entry): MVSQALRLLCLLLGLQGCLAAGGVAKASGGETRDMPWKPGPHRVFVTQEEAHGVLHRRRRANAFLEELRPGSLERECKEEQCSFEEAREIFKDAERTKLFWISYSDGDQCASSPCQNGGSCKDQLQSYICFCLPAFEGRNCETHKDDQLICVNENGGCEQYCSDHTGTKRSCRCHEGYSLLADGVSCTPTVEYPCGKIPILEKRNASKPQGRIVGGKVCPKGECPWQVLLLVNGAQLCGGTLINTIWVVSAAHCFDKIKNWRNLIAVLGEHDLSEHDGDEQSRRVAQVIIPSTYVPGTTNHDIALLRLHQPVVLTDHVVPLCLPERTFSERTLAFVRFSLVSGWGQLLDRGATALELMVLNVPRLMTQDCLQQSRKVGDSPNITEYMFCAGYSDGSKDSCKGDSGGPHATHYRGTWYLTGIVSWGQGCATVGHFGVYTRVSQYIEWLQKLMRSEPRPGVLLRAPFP

[2] = (§1) Volume of distribution at steady state in dog; assay type: ADME, organism-based, Canis lupus familiaris; details: in vivo, read-out: Vdss
[3] = Bioavailability in dog at 0.5 mg/kg, iv; assay type: ADME, organism-based, Canis lupus familiaris; details: in vivo
[4] = Clearance in dog at 0.5 mg/kg, iv; assay type: ADME, organism-based, Canis lupus familiaris; design: dose 0.5 mg/kg, route intravenous; details: in vivo
[5] = target: Plasma kallikrein (Homo sapiens) (UniProt P03952); assay: Inhibition of human plasma kallikrein; assay type: cell-free
[6] = target: Vitamin K-dependent protein C (Homo sapiens) (UniProt P04070); assay: Inhibition of human activated protein C
[7] = Half life in dog at 0.2 mg/kg, po; assay type: ADME, organism-based, Canis lupus familiaris; design: dose 0.2 mg/kg, route oral; details: in vivo
[8] = target: Coagulation factor IX (Homo sapiens) (UniProt P00740); assay: Inhibition of human factor 9a
Homo sapiens = species: Homo sapiens; assay: Inhibition of human chymotrypsin
[9] = Metabolic stability in human liver microsomes assessed as half life; assay type: ADME, Microsome
[10] = target: Plasminogen (Homo sapiens) (UniProt P00747); assay: Inhibition of human plasmin
[11] = target: Tissue-type plasminogen activator (Homo sapiens) (UniProt P00750); assay: Inhibition of human tPA
Canis familiaris = species: Canis familiaris; assay: as §1; assay type: ADME, organism-based, Canis lupus familiaris; details: in vivo
Coagulation factor X = Coagulation factor X (Homo sapiens, UniProt P00742); assay: Inhibition of human factor 10a
Trypsin (Homo sapiens) = Trypsin (Homo sapiens) (UniProt P07477+P07478+P35030); assay: Inhibition of human trypsin; assay type: protein assay

Sequence of Coagulation factor IX (Homo sapiens) (P00740 47-191 limits assumed): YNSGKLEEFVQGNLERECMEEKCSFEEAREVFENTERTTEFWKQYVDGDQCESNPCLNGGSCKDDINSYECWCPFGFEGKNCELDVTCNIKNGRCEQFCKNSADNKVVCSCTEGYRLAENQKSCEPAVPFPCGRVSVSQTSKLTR
Sequence of Coagulation factor IX (Homo sapiens) (P00740 227-461 limits assumed): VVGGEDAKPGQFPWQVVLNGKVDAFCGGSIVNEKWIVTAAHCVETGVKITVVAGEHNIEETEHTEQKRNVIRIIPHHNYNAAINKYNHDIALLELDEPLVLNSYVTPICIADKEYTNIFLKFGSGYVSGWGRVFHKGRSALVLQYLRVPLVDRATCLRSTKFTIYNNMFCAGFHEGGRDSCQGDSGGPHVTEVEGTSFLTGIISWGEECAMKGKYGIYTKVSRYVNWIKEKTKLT
Sequence of Vitamin K-dependent protein C (Homo sapiens) (P04070 43-197 limits assumed): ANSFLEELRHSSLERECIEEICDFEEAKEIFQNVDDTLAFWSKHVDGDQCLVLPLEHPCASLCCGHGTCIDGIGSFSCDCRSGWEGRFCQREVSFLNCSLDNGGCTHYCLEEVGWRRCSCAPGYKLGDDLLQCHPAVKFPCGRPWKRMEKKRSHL
Sequence of Vitamin K-dependent protein C (Homo sapiens) (P04070 212-461 limits assumed): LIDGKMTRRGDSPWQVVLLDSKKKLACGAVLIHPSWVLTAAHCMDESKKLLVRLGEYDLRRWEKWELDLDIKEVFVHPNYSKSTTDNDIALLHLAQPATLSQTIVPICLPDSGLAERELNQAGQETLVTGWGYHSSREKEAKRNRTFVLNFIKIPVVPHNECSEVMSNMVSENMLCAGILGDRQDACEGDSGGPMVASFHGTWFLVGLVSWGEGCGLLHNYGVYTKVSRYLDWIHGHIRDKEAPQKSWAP
Sequence of Plasminogen (Homo sapiens) (P00747 97-580 limits assumed): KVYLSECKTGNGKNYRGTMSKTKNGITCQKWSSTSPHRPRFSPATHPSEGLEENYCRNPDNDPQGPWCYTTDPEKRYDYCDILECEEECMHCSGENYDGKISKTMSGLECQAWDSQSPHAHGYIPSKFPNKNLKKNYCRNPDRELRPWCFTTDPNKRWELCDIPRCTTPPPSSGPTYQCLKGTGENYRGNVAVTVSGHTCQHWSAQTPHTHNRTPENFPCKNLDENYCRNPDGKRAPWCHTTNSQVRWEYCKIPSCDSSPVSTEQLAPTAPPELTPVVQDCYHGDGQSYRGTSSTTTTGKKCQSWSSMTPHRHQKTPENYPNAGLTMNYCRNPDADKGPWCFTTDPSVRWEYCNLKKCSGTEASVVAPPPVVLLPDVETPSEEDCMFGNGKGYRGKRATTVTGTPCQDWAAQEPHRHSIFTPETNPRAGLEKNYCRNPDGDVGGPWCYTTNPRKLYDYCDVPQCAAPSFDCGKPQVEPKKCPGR
Sequence of Plasminogen (Homo sapiens) (P00747 581-810 limits assumed): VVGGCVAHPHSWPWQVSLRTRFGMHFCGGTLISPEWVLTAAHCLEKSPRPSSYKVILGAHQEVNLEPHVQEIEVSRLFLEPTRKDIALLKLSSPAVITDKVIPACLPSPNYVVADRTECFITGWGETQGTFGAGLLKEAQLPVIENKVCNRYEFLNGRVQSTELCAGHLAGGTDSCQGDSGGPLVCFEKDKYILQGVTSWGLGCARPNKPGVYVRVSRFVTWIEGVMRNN
Sequence of Tissue-type plasminogen activator (Homo sapiens) (P00750 36-562 limits assumed): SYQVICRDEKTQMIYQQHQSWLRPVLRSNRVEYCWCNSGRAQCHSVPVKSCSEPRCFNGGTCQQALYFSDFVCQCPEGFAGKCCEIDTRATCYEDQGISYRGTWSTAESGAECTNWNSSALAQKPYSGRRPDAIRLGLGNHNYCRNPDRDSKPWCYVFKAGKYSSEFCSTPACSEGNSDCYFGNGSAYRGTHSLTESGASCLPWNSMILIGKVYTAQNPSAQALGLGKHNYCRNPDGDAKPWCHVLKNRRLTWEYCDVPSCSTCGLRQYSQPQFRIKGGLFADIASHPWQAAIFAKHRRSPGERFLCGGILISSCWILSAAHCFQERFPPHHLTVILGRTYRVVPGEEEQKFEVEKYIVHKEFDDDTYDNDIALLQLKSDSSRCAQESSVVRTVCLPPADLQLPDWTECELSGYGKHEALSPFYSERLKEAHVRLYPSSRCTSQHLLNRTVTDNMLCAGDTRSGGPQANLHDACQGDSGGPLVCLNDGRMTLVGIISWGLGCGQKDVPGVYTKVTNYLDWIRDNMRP
Sequence of Plasma kallikrein (Homo sapiens) (P03952 20-390 limits assumed): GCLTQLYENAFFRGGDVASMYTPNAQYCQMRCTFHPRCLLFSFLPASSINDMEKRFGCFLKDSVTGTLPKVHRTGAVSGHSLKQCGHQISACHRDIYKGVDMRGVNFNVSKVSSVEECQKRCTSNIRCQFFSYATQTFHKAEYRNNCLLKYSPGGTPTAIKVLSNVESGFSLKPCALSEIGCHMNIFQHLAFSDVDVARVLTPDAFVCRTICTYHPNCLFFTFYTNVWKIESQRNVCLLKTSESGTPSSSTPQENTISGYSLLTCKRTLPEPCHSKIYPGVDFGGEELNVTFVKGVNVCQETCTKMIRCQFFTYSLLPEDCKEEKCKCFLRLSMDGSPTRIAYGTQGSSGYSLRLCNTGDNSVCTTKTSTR
Sequence of Plasma kallikrein (Homo sapiens) (P03952 391-638 limits assumed): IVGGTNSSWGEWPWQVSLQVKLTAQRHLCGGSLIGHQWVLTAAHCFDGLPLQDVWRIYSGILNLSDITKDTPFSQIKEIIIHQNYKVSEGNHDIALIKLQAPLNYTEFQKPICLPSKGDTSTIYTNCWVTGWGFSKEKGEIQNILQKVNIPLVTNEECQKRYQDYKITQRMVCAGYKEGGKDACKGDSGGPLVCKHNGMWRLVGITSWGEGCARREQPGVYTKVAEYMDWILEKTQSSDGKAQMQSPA
Sequence of Coagulation factor X (P00742 41-179 limits assumed): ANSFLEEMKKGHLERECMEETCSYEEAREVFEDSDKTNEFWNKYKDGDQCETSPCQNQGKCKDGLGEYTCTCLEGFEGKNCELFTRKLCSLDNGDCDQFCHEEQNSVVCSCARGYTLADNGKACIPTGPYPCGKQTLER
Sequence of Coagulation factor X (P00742 235-488 limits assumed): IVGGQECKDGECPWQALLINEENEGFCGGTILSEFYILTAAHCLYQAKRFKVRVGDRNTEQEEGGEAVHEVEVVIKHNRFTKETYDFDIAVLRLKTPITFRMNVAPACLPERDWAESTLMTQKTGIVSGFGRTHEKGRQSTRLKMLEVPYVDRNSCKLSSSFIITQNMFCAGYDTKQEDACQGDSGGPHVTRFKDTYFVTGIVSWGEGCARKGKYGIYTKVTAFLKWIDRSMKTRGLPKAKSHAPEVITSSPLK

Compound	Activity [1]	Vd [2] [L/kg]	bioavailability [3] [%]	clearance [4] [mL/min/kg]	Activity [5]	Activity [6]	half-life [7] [h]	Activity [8]	Activity (Homo sapiens)	half-life [9] [h]	Activity [10]	Activity [11]	Vdss (Canis familiaris) [L/kg]	Ki (Coagulation factor X) [nM]	Activity (Trypsin (Homo sapiens))
COc1ccc(-n2nc(C(F)(F)F)c3c2C(=O)N(c2ccc(C4(CN(C)C)CC4)cc2)CC3)cc1	inactive	15	53	20	inactive	inactive	12	inactive	inactive	1.83	inactive	inactive			
CN(C)Cc1nccn1-c1ccc(NC(=O)c2cc(C(F)(F)F)nn2-c2ccc3onc(N)c3c2)c(F)c1 [RAZAXABAN]			84							0.6			5.3		
COc1ccc(-n2nc(C(F)(F)F)c3c2C(=O)N(c2ccc(C4(CN)CC4)cc2)CC3)cc1	inactive				inactive	inactive		inactive	inactive		inactive	inactive		0.57	inactive
COc1ccc(-n2nc(C(F)(F)F)c3c2C(=O)N(c2ccc(C4(CN(C)S(C)(=O)=O)CC4)cc2)CC3)cc1	inactive				inactive	inactive		inactive	inactive		inactive	inactive		0.074	inactive
